“Also recorded” adds a separate entry of the source.

The values that follow come from patent US10179142B2, “Treatment and/or prevention of bone metastasis” (The Arizona Board of Regents on behalf of The University of …, priority 2013, dated 2019).

Holding throughout (type): cell-based, human
The test system of test [1] is prostate cancer cells. Briefly: Colony formation (FIG. 4, cell line not given). As for the experimental part: PC-3, LNCaP and DU145 cells were plated at 1000 cells/well into standard 6-well plates (3.5 cm) in the presence of complete media. The next day cells were drugged at increasing concentrations ranging from 1 to 50 μM in triplicate wells. Cells were viewed twice weekly to check for colony growth and confluence. Media and respective drugs were carefully replaced every three days. At day 12, media was aspirated and resulted colonies were stained with crystal violet (0.5% w/v) dissolved in ethanol for one minute, washed with water, and air dried as already described in reference. The resulting colonies were counted utilizing an Optronix Colony counter using ColCount software (Oxford Optronix Ltd, UK). The results represent an average of two independent experiments, each run in triplicates.

The subject of test [2] is PC-3 cells. Briefly: Migration wound closure assay. Conditions: for migration / motility (wound healing): prostate cancer cells, concentration not given. As for the experimental part:
PC-3, DU145 and LNCaP cells were grown in six-well plates in the presence of 10% FBS. Once the cells formed a monolayer, near confluency a wound was done manually with a sterile […] pipette tip in the center of each well. Cells were treated with vehicle alone (DMSO) or 10 μM of compound IV and were grown in the presence of 2% FBS. After 18 hours, the migrating cells were photographed. The wound closure was quantified by measuring the distance between the two sides of the wound. The results represent an average of two independent experiments, each run in triplicates.
(§1) As reported previously, inhibition of Tiam-1 and subsequent inactivation of downstream signaling proteins leads to reduced actin cytoskeleton rearrangements resulting in decreased cell motility. […] FIG. 4, Panel A, A wound channel was introduced near-to-confluent non-treated or treated PC-3 cells with 10 μM V pKLO1 mock-transfection control cells, and shRNA cell line 1.2 (GS-1). […] FIG. 4, Panel B, PC-3 cells and Tiam-1 shRNA cell line 1.2 (shRNA 1.2) were treated as indicated, then stimulated with 20% FBS for 20 minutes to induce lamellipodia formation and stained with rhodamin phalloidin. Individual lamellipodia were counted in a minimum of 10 cells in each respective group and statistical analysis was performed using a Student's t-test. […] FIG. 4, Panel C, pKLO1 PC-3 cells, pKLO1 treated with 10 μM compound V and shRNA 1.2 cells were allowed to invade through Matrigel-coated transwell plates. Invading cells were stained after 12 hours and counted at 20× power (left side). […] In order to test our hypothesis, cells were stained with rhodamin phalloidin and then analyzed for actin/cytoskeleton formations, such as lamellipodia. […] Thus, the observed reduction in cellular motility in compound V treated cells and Tiam-1 silenced cells may be the result of f-actin disruption and reduced frequencies of lamellipodia formation. We next tested whether the compound of Formula V affected invasion of PC-3 through Matrigel-coated transwells.

In test [3] the test system is active Rac1 in PC-3 cells. Briefly: Rac1 activation assay (GLISA). Conditions: 1 μM, 4 hours, then 50 ng/ml hHGF for 2 minutes. As for the experimental part:
Rac1 activity was determined by the colorimetric GLISA Kit BK128 (Cytoskeleton, Inc, Denver, Co). Briefly, PC-3 (PC-3, pKLO.1, GS-1 and GS-2 cells), DU 145 and LNCap cells were grown to 75% confluence and then serum starved for 48 hours. Drugs were then added for 4 hours and cells were stimulated with 50 ng/ml hHGF (Gibco Life Sciences, Carlsbad, Ca) for 2 minutes. Cells were then lysed and harvested as described in the kit-supplied protocol. Protein concentration was normalized to 1.0 g/l. Plates were read in an absorbance spectrophotometer at 490 nm at 24° C. with 5 s medium orbital shaking. Data were analyzed as described in the supplied protocol. The results represent an average of three independent experiments, each run in duplicates.
A cellular screen of all hit compounds was conducted using the GLISA Rac1 activation kit. Briefly, PC-3 cells were drugged for 4 hours at 1 μM concentration with the selected compounds. Cells were then stimulated with 50 ng/ml of hHGF for 2 minutes. […] The isovolume of Tiam-1 PH domain (PDB 1FOE) was generated using GRID for the H-bond acceptor (−3.6 kcal/mol), the H-bond donor (−7.3 kcal/mol) and hydrophobic (−2.5 kcal/mol) probes. The critical residues are labeled around the isovolume surfaces. The dash lines represent hydrogen bonds between protein and inhibitors. […]

The subject of test [4] is PC-3 cells. Briefly: Lamellipodia forming assay. As for the experimental part: Glass coverslips were sterilized with 100% EtOH and placed in 6-well plates. PC-3 cells, pKLO.1, GS-1 and GS-2 cells were plated at 3000 cells/well and allowed to adhere overnight. Cells where then serum starved for 48 hours, then treated with the indicated drug for 12 hours, and stimulated with 20% FBS for 30 minutes. Coverslips were then removed from the plates, washed twice with cold PBS, and fixed with 3.7% paraformaldehyde solution in PBS for 10 minutes. Cells were then permeabilized using 0.1% Triton X-100 for 5 minutes. Cells were stained with rhodamine phalloidin (Invitrogen, Carlsbad, Calif.) for 20 minutes using the supplied protocol. Coverslips were then air-dried and mounted using ProLong Gold with DAPI (Invitrogen, Carlsbad, Calif.) and stored at 4° C. Cells were visualized at 40× using Olympus Bx-50 microscope with the CellSens imaging software. Individual lamellipodia were counted in a minimum of 10 cells in each respective group and statistical analysis was done using a Student's t-test.
As reported previously, inhibition of Tiam-1 and subsequent inactivation of downstream signaling proteins leads to reduced actin cytoskeleton rearrangements resulting in decreased cell motility. […] FIG. 4, Panel A, A wound channel was introduced near-to-confluent non-treated or treated PC-3 cells with 10 μM V pKLO1 mock-transfection control cells, and shRNA cell line 1.2 (GS-1). […] FIG. 4, Panel B, PC-3 cells and Tiam-1 shRNA cell line 1.2 (shRNA 1.2) were treated as indicated, then stimulated with 20% FBS for 20 minutes to induce lamellipodia formation and stained with rhodamin phalloidin. Individual lamellipodia were counted in a minimum of 10 cells in each respective group and statistical analysis was performed using a Student's t-test. […] Invading cells were stained after 12 hours and counted at 20× power (left side). […] In order to test our hypothesis, cells were stained with rhodamin phalloidin and then analyzed for actin/cytoskeleton formations, such as lamellipodia. […]

Test [5] relates to PC-3 cells. Briefly: Matrigel invasion assay. Conditions: for invasion: prostate cancer cells, concentration not given. How it is done:
PC-3 cells were pre-treated with DMSO vehicle control or with drug for 4 hours in T-25 flasks. Thereafter, 50,000 cells were then plated into the upper chamber that has been pre-coated with Matrigel (BD Sciences, San Jose, Ca) in the presence of drug or DMSO and serum-free media. The bottom well contained complete media including 10% FBS and 0.5% BSA as chemoattractants. After 24 hours, the upper chambers were removed, and any remaining cells within the insert were wiped with a cotton swab. Invading cells were then stained with 2% crystal violet in 20% methanol. Cells were then counted using a Zeiss stereomicroscope at 20× power. 10 random fields were counted. The results represent an average of two independent experiments, each run in triplicates.
as §1, with “We next tested whether the compound of Formula V affected invasion of PC-3 through Matrigel-coated transwells.” left out

[6] abbreviates: prostate cancer cells, concentration not given.

For the compound `c1ccc(Cn2nnc3c(Sc4nnc(-c5ccncc5)o4)ncnc32)cc1` [VI], the colony formation result in test [1] is reported as “inhibits”. In addition, the “migration / motility (wound healing)” value in test [2] is recorded as “inhibits; also recorded: reduce migration”. In addition, in test [3], the “reduction of active Rac1” value was “most pronounced and significant reduction of active Rac1”. Further, the lamellipodia formation entry in test [4] (setting [6]) is “inhibits; also recorded: reduce lamellipodia formation”. For the same compound, the invasion entry in test [5] is listed as “inhibits; also recorded: reduce invasion”.
Turning to `Cc1ccc(-n2cc(-c3cccs3)nc2SCc2n[nH]c(=S)n2Cc2ccccc2)cc1` [compound V], in test [1], the colony formation entry is given as “inhibits”. Further, the wound closure entry in test [2] (PC-3 cells, 10 μM, after 18 hours) is given as “significant inability to close a wound”. Also, the “migration / motility (wound healing)” value in test [2] was “inhibits; also recorded: reduce migration”. In addition, in test [3], the “reduction of active Rac1” value is “most pronounced and significant reduction of active Rac1”. For the same compound, the lamellipodia formation entry in test [4] (PC-3 cells, 10 μM, stimulation with 20% FBS) was “significantly reduced the frequency of lamellipodia formation”; in test [4] (setting [6]) it was “inhibits; also recorded: reduce lamellipodia formation”. Further, the “invasion through Matrigel-coated transwells” value in test [5] (PC-3 cells, 10 μM) was “significantly reduced amount of invading cells”. Besides, the invasion entry in test [5] is reported as “inhibits; also recorded: reduce invasion”.
